Each structure is given as a SMILES string.

One molecule from paper PMC6934184, “Selective DNA-PKcs inhibition extends the therapeutic index of localized radiotherapy and chemotherapy” (The Journal of Clinical Investigation, 2019) can be followed below.

For this experiment, the target named is T1, MUSK (Homo sapiens, UniProt O15146).
T1 construct: purchased Thermo Fisher Scientific (Life Technologies) SelectScreen
The experiment in a line: SelectScreen Z'LYTE. The format is biochemical. In outline:
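NU5455 was profiled across the SelectScreen Broad panel of kinase activity and binding assays. Z'LYTE reactions such as CSF1R ran at apparent Km ATP, while the Adapta CAMK1 assay used ATP listed as 10. Values are given as percent.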

T1 sequence (O15146 24-869): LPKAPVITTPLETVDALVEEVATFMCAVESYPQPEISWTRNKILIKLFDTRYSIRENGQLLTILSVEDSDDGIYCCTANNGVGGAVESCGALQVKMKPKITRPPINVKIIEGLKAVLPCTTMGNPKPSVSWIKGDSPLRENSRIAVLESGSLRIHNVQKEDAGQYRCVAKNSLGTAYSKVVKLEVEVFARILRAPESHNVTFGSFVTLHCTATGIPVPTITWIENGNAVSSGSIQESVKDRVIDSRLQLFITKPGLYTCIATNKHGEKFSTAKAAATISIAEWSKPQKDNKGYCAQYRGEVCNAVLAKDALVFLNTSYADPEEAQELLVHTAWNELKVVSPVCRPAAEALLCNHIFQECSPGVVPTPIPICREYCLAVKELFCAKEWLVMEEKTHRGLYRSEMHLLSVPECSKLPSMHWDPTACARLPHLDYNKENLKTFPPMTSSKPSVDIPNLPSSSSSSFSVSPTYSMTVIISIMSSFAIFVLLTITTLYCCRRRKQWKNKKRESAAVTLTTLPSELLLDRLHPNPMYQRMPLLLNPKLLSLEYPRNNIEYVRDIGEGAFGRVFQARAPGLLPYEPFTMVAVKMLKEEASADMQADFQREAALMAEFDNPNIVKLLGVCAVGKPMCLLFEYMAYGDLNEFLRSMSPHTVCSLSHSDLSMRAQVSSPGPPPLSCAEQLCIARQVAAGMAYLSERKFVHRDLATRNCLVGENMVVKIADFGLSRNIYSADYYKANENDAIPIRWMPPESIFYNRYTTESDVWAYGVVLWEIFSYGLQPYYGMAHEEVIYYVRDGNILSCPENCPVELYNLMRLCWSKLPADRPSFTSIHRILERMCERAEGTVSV

`CN(C(=O)CN1CCOCC1)c1ccc2sc3c(-c4cccc5c(=O)cc(N6CC7CCC(C6)O7)oc45)cccc3c2c1` [NU5455] had an inhibition at 1 µM of 10.3%.
